The values below come from patent publication US7595333B2, “Agent for improving acidosis” (priority 1999, dated 2009).

In assay [1] the test system is Wistar fatty rats. Description: Effect on ketosis caused by a biguanide (metformin) in Wistar fatty rats (total ketone bodies in plasma). Format: in vivo, rat. The settings on record: for concentration of total ketone bodies, higher as compared with Group A (without metformin and pioglitazone hydrochloride) / concentration of total ketone bodies in plasma: metformin 300 mg/kg/day; for concentration of total ketone bodies, higher as compared with Group A (without metformin and pioglitazone hydrochloride): difference of means; for concentration of total ketone bodies in plasma: Wistar fatty rats, pioglitazone hydrochloride 1 mg/kg/day, mean ± SD, n=6. The source says: 3-Hydroxybutyric acid (3-HB) in samples is specifically oxidized by 3-hydroxybutyric acid dehydrogenase (3-HBDH) in the presence of an oxidized form of β-thionicotinamide adenine dinucleotide (thio-NAD) to produce acetoacetic acid (AcAc) and a reduced form of β-thionicotinamide adenine dinucleotide (thio-NADH). […] The concentration of total ketone bodies which is the sum of 3-HB and AcAc in samples can be calculated by determining a production speed of thio-NADH thus obtained.
Effects of an insulin sensitizer (pioglitazone hydrochloride) on ketosis caused by a biguanide (metformin) in Wistar fatty rats, NIDDM models, were studied.
First, Wistar fatty rats (31 week-old, male) were divided into three groups, namely Groups A, B and C, each consisting of 6 rats. […] After administration, blood was collected from the tail vein of the Wistar fatty rats, and total ketone bodies in the plasma were determined in the same manner as in Experimental Example 1.
In the table, W. fatty. Met and Pio mean Wistar fatty rat, metformin and pioglitazone hydrochloride, respectively. Figures in the table represent means ± standard deviation (number of subjects=6).
The concentration of total ketone bodies in plasma of Wistar fatty rats was determined in the same manner as in Experimental Example 2 except that the administration period was changed from 14 days to 7 days.

Assay [2] relates to Wistar fatty rats. Description: Effect on diabetic ketosis in Wistar fatty rats (total ketone bodies in plasma). Format: in vivo, rat. The settings on record: for concentration of total ketone bodies in plasma: Wistar fatty rats (31 week-old, male), pioglitazone hydrochloride 1 mg/kg body weight/day orally for 14 days, mean ± SD, n=6, control without Pio 170.23 ± 22.33 μM. An excerpt:
For instance, diabetic ketosis is observed in a Wistar fatty rat which is an animal model of non-insulin dependent (type 2) diabetes mellitus. Therefore, a ketosis improving action of a test compound can be evaluated by comparing concentration of total ketone bodies in plasma between Wistar fatty rat groups with administration of a test compound (Experimental group) and Wistar fatty rat groups without administration of a test compound (Control group). […] 3-Hydroxybutyric acid (3-HB) in samples is specifically oxidized by 3-hydroxybutyric acid dehydrogenase (3-HBDH) in the presence of an oxidized form of β-thionicotinamide adenine dinucleotide (thio-NAD) to produce acetoacetic acid (AcAc) and a reduced form of β-thionicotinamide adenine dinucleotide (thio-NADH). […] Effects of an insulin sensitizer (pioglitazone hydrochloride) on diabetic ketosis in Wistar fatty rats, animal models of non-insulin dependent diabetes mellitus (NIDDM), were studied. First, Wistar fatty rats (31 week-old, male) were divided into two groups each consisting of 6 rats. […] After administration, blood was collected from the tail vein of the Wistar fatty rats, and total ketone bodies in the plasma were enzymatically determined by using AutoWako total ketone bodies (Trade name)(Wako Pure Chemical Industries, Ltd., Japan) and Hitachi 7070 Autoanalyzing machine. Wistar lean rats (6 rats), animal models of non diabetes mellitus (normal), were orally administered with a 0.5 (w/v) % aqueous methylcellulose solution for 14 days. Then, total ketone bodies in the plasma were determined in the same manner as above. In the table, W, lean, W. fatty and Pio mean Wistar lean rat, Wistar fatty rat and pioglitazone hydrochloride, respectively. Figures in the table represent means ± standard deviation (number of subjects=6).

Structures are written as SMILES. Counter-ions that a name gives are not always drawn.

On to `CN(C)C(=N)N=C(N)N` [metformin], for which the “concentration of total ketone bodies, higher as compared with Group A (without metformin and pioglitazone hydrochloride)” value in assay [1] (7 days) turned out to be 38.86 µM; in assay [1] (14 days), 11.77 µM. Also, the “concentration of total ketone bodies in plasma” value was 199.23 ± 55.69 µM in assay [1] (7 days orally, Group A control 160.37 ± 14.00 μM); 199.23 ± 55.69 µM in assay [1] (7 days orally, Group A control 160.37 ± 14.00 μM, listed as Met); 182.00 ± 22.50 µM in assay [1] (14 days orally, Group A control 170.23 ± 22.33 μM); 182.00 ± 22.50 µM in assay [1] (14 days orally, Group A control 170.23 ± 22.33 μM, listed as Met).

Take `CCc1ccc(CCOc2ccc(CC3SC(=O)NC3=O)cc2)nc1` (centres unmarked) [pioglitazone hydrochloride, 5-[4-[2-(5-ethyl-2-pyridyl)ethoxy]benzyl]-2,4-thiazolidinedione]: the “effect on ketosis caused by a biguanide (conclusion in words)” value in assay [1] (Experimental Examples 2 and 3 (14 and 7 days)) is listed as “improves ketosis caused by a biguanide (metformin)”. In addition, the “concentration of total ketone bodies in plasma” value in assay [2] and in assay [2] (listed as Pio) was 125.72 ± 12.49 µM each time. The “effect on diabetic ketosis (conclusion in words)” value in assay [2] (Wistar fatty rats, 1 mg/kg/day orally, 14 days) was “improves diabetic ketosis”. Moreover, the “concentration of total ketone bodies, lower as compared with the group without pioglitazone hydrochloride” value in assay [2] (Wistar fatty rats, 1 mg/kg/day orally, 14 days, difference of means) was determined as 44.51 µM.
